Source: patent publication US8715704B2, “Lure” (London School of Hygiene & Tropical Medicine, priority 2008, dated 2014)
Counter-ions that a name gives are not always drawn.

How the values were obtained:
[1] = tested on: Dermatophagoides farinae; assay: Acaricide lethal dosage bioassay; type: in vivo
[2] = tested on: Dermatophagoides farinae; assay: Semi-field carpet disc lure bioassay with sticky trap; type: in vivo; conditions: 10 ng/10 μl neryl formate in hexane on filter paper v. hexane; cut pile and loop pile carpet; 1-40 min
Method: (§1) Initially, a bioassay was designed to test the efficacy of neryl formate in attracting populations of the American house dust mite, Dermatophagoides farinae, and the European house dust mite, D. pteronyssinus, from carpet sections. The bioassay involved the placement of D. farinae and D. pteronyssinus onto cut carpet discs (5 cm in diameter) which were placed underneath a glass Petri dish to maintain humidity. Two types of carpet (both obtained from Heuga Home Flooring BV) were tested: cut pile (Simply Soft Aquarius) and loop pile (Working Week Boucle Ink Pad). Aliquots of a 10 ng/10 μl neryl formate solution (in hexane) were used for the lure treatment, whilst hexane alone was used for the control. Both solutions were injected onto filter paper discs (2 cm diameter) and placed into the centre of the carpet discs. After an allocated time interval (1, 5, 10, 20 or 40 min), a sticky trap was placed onto the carpet to capture the mites, and subsequently placed under a microscope to record the amount and position of the mites, to ascertain if the mites had moved from their original position. Data were analysed using a generalized linear model assuming a binomial distribution with a logit link and dispersion parameter equal to 1.0 (see Table 1). The analysis of deviance for both responses was obtained using the MODEL procedure as implemented in GenStat 8.0 (Rothamsted Research).

[3] = tested on: Dermatophagoides pteronyssinus; assay: as above; type: in vivo; conditions: 10 ng/10 μl neryl formate in hexane on filter paper v. hexane; cut pile and loop pile carpet; 1-40 min
Method: as §1

[4] = tested on: Dermatophagoides farinae; assay: Y-tube olfactometer behavioural bioassay; type: in vivo
Method: (§2) A Y-tube olfactometer was used to observe the behavioural responses elicited by house dust mites, as described previously (Skelton et al., in press). For each experiment, a treatment and control stimulus was added (1 μl) to separate filter paper discs (1.5 cm diameter), allowed to dry for 1 min, and placed into each arm of the olfactometer. A power analysis was carried out at 80% power, 95% significance; to calculate appropriate sample sizes to see 40% difference in effect (70% to treatment) (STATA 8.2 software). […] Treatments comprised: (1) chromatography fractions derived from the D. farinae extract .v. hexane, (2) neryl formate (10 & 100 ng/μl) .v. hexane, (3) a female D. farinae extract .v. neryl formate, (4) a male D. farinae extract .v. neryl formate, and (5) a female D. pteronyssinus extract .v. neryl formate. Categorical data from the Y-tube olfactometer bioassays were tested with a Chi-squared test for goodness of fit, with a Yates correction factor (preference to a particular arm) (Fowler et al., 1998). Time data were log 10-transformed prior to parametric data analysis. A three-way ANOVA (Minitab 11 for Windows) was carried out to analyse if the log time to make a decision in the treatment arm (neryl formate) was affected by the concentration of neryl formate, gender and house dust mite species studied.

[5] = tested on: Dermatophagoides pteronyssinus; assay: Y-tube olfactometer behavioural bioassay; type: in vivo; conditions: for global responses (males and females) to the arm containing neryl formate: x^2=11.025, P<0.01, n=40
Method: as §2

[6] = tested on: Lardoglyphus konoi; conditions: 10 ng/μl; Kuwahara et al., 1991; cited from earlier work
[7] = tested on: Caloglyphus polyphyllae mites; conditions: Shimizu et al., 2001; cited from earlier work
[8] = 10 ng v. hexane, x^2=6.05, P<0.05, n=20

C/C=C(\C)C(=O)O[C@H]1C[C@@H](OC(C)=O)[C@@]2(C(=O)OC)CO[C@H]3[C@@H](O)[C@@](C)([C@]45O[C@@]4(C)[C@H]4C[C@@H]5O[C@@H]5OC=C[C@@]54O)[C@H]4[C@]1(CO[C@]4(O)C(=O)OC)[C@@H]32 [azadirachtin]
mortality [1]: little mortality

CC(C)=CCC/C(C)=C\COC=O [neryl formate, (Z)-3,7-dimethyl-2,6-octadienyl formate]
number of mites retrieved on sticky traps [2]: significantly increased | number of mites retrieved on sticky traps [3]: significantly increased | response of females to neryl formate [4, 8]: significant response | global responses of males and females to the arm containing neryl formate ([4]; 10 ng v. hexane, x^2=9.025, P<0.01, n=40): significant | global responses of males and females to the arm containing neryl formate ([4]; 100 ng v. hexane, x^2=4.225, P<0.05, n=40): significant | response of males to neryl formate ([4]; 100 ng v. hexane, x^2=6.05, P<0.05, n=20): significant response | response to neryl formate or con-specific extract ([4]; females, v. female D. farinae extract, x^2=1.38, P=0.24, n=18): no significant difference | response to synthetic neryl formate or con-specific extract containing naturally produced neryl formate ([4]; males, v. male D. farinae extract, x^2=0.10, P=0.75, n=14): no significant difference | response of females to neryl formate ([5]; 10 ng v. hexane, x^2=4.05, P<0.05, n=20): significant response | response of males to neryl formate [5, 8]: significant response | global responses (males and females) to the arm containing neryl formate ([5]; 10 ng v. hexane): significant | response of females to neryl formate ([5]; 100 ng v. hexane, x^2=8.45, P<0.01, n=20): significant response | global responses (males and females) to the arm containing neryl formate ([5]; 100 ng v. hexane): significant | response to synthetic neryl formate or con-specific extract ([5]; females, v. female D. pteronyssinus extract, x^2=0.06, P=0.80, n=16): not significantly different

CCC[C@@H](C)C[C@@H](C)C[C@@H](C)C[C@@H](C)OC=O [(1R,3R,5R,7R) lardolure, (1R,3R,5R,7R)-1,3,5,7-tetramethyldecyl formate]
concentration at which mites significantly respond [6]: 10 ppm

CC(C)=CC/C=C(/C=O)CC=O [β-acaridial]
amount at which mites significantly respond [7]: 10 ng
